Columns and labels:
Rattus norvegicus = experiment: Effective dose following intravenous administration to conscious rats for inhibition of AII-induced pressor response; format: functional
[1] = target: Angiotensin II receptor (Cavia porcellus); experiment: Inhibition of [125I]AII binding to guinea pig adrenal membrane

| SMILES | ED50 (Rattus norvegicus) [mg/kg] | IC50 [1] [nM] |
| --- | --- | --- |
| CCc1cc(OCc2ccc(-c3ccccc3-c3nn[nH]n3)cc2)c2ccccc2n1 | 1 | – |
| COC(=O)c1c(NCc2ccc(-c3ccccc3-c3nn[nH]n3)cc2)cc(C)nc1C | – | 8.03 |
| CCc1cc(OCc2ccc(-c3ccccc3-c3nn[nH]n3)cc2)c(I)c(CC)n1 | 0.44 | 14 |
| CCc1cc(NCc2ccc(-c3ccccc3-c3nn[nH]n3)cc2)c(-c2ccc(C(F)(F)F)cc2)c(CC)n1 | – | 26.4 |
| CCc1cc(NCc2ccc(-c3ccccc3-c3nn[nH]n3)cc2)c(Cl)c(CC)n1 | 0.06 | 7.58 |
| CCc1cc(NCc2ccc(-c3ccccc3-c3nn[nH]n3)cc2)c(Br)c(CC)n1 | 0.09 | 3.83 |
| CCc1cc(NCc2ccc(-c3ccccc3-c3nn[nH]n3)cc2)c(C(=O)OC)c(CC)n1 | – | 6.21 |
| CCc1cc(NCc2ccc(-c3ccccc3-c3nn[nH]n3)cc2)c(-c2ccc(C)cc2)c(CC)n1 | – | 24.9 |
| CCc1cc(NCc2ccc(-c3ccccc3-c3nn[nH]n3)cc2)c(I)c(CC)n1 | 0.13 | 2.64 |
| Cc1cc(NCc2ccc(-c3ccccc3-c3nn[nH]n3)cc2)c(I)c(C)n1 | 0.05 | 3.48 |
| Cc1cc(NCc2ccc(-c3ccccc3-c3nn[nH]n3)cc2)c(Cl)c(C)n1 | 0.03 | 6.65 |
| CCc1cc(OCc2ccc(-c3ccccc3-c3nn[nH]n3)cc2)c2c(n1)CCCC2 | 0.39 | – |
| CCCCc1nc(Cl)c(CO)n1Cc1ccc(-c2ccccc2-c2nnn[nH]2)cc1 [LOSARTAN] | 0.65 | – |
